From patent US8425885B2, “Substituted 3-(phenoxymethyl) benzyl amines and personal care compositions” (Conopco, Inc., priority 2009, dated 2013) come the findings set out here.

In this experiment the test system is Melanoderm tissue equivalent model MEL-300 (MatTek) containing melanocytes obtained from dark skin individuals. Put plainly: Melanoderm tissue equivalent melanin content (inhibition of melanogenesis). It is filed as cell-based. The settings on record: Melanocyte, 336 h, total melanin content vs DMSO vehicle, 5 μM in maintenance medium, 14 days. On the procedure:
Melanoderm tissue equivalent model MEL-300 (MatTek: Ashland, Mass.) containing melanocytes obtained from dark skin individuals were cultured as per supplier instructions. Components were added to the maintenance medium phase (no topical treatments) at a final concentration of 5 μM for 14 days at which time the experiment was terminated and the tissues assessed for melanin content. Medium and treatments were changed three times per week. DMSO was utilized as the vehicle control and all treatments were performed at least in duplicate.
For quantification of total melanin, each Melanoderm was placed into an individual Eppendorf tube (2 mL) into which 250 μL of Solvable™ tissue solubilizer (Packard Bioscience Co., Cat#6NE9100) was added. Each tube was vortexed and incubated at 60° C. for 18 hours. Each sample was then centrifuged (5-minutes at 13,000 RPMs) to remove any particulates. 100 or 200 μL of supernatant were transferred to a 96 well microtiter plate and the absorbance read at 490 nm. Total melanin content was calculated from a standard curve using synthetic melanin (Sigma Cat# M8631). Data was analyzed for significance using the t-test in Microsoft Excel to generate p-values (p-values less than 0.01 represent 99% confidence, p values of 0.05 represent 95% confidence both of which are statistically significant).
Take `CCN(CC)Cc1cccc(COc2cccc3ccccc23)c1` [5h, N-(3-((naphthalen-1-yloxy)methyl)benzyl)-N-ethylethanamine]: the inhibition (in general, the relative decrease from the control value, in per cent) at 5 µM was determined as 33.5%.

For the compound `CC(C)NCc1cccc(COc2cccc3ccccc23)c1` [5j, N-(3-((naphthalen-1-yloxy)methyl)benzyl)propan-2-amine], the inhibition at 5 µM was 26.5%.

In the case of `CCc1ccccc1OCc1cccc(CNC)c1` [5q, (3-((2-ethylphenoxy)methyl)phenyl)-N-methylmethanamine], the inhibition at 5 µM was 42.3%.

On to `CNCc1cccc(COc2cccc3ccccc23)c1` [5t, N-methyl(3-((naphthalen-1-yloxy)methyl)phenyl)methanamine], for which the inhibition at 5 µM is 27.1%.

On to `CCc1ccccc1OCc1cccc(CN(CC)CC)c1` [5c, N-(3-((2-ethylphenoxy)methyl)benzyl)-N-ethylethanamine], for which the inhibition at 5 µM turned out to be 30.7%.

With `CCN(CC)Cc1cccc(COc2ccccc2OC)c1` [5d, N-(3-((2-methoxyphenoxy)methyl)benzyl)-N-ethylethanamine], the inhibition at 5 µM came to 9.3%.

As to `CCN(CC)Cc1cccc(COc2ccccc2C(C)C)c1` [5g, N-(3-((2-isopropylphenoxy)methyl)benzyl)-N-ethylethanamine], the inhibition at 5 µM amounted to 29.9%.

`CCNCc1cccc(COc2ccccc2CC)c1` [5r, N-(3-((2-ethylphenoxy)methyl)benzyl)ethanamine]: the inhibition at 5 µM was 33.9%.

For the compound `CCN(C)Cc1cccc(COc2ccccc2OC)c1` [5f, N-(3-((2-methoxyphenoxy)methyl)benzyl)-N-methylethanamine], the inhibition at 5 µM was 20.8%.

For the compound `CN(C)Cc1cccc(COc2cccc3ccccc23)c1` [5i, N,N-dimethyl(3-((naphthalen-1-yloxy)methyl)phenyl)methanamine], the inhibition at 5 µM was found to be 25.3%.

Consider `CCN(CC)Cc1cccc(COc2ccccc2)c1` [5a, N-(3-(phenoxymethyl)benzyl)-N-ethylethanamine], for which the inhibition at 5 µM came out at 14.4%.

As for `CCN(CC)Cc1cccc(COc2ccccc2C)c1` [5b, N-(3-((o-tolyloxy)methyl)benzyl)-N-ethylethanamine], the inhibition at 5 µM stood at 27.1%.

Consider `CCc1ccccc1OCc1cccc(CN(C)C)c1` [5m, (3-((2-ethylphenoxy)methyl)phenyl)-N,N-dimethylmethanamine], for which the inhibition at 5 µM is 31.6%.

`CCc1ccc(OCc2cccc(CN(C)C)c2)cc1` [5k]: the inhibition at 5 µM was -0.6%.

For the compound `CCNCc1cccc(COc2cccc3ccccc23)c1` [5u, N-((3-((naphthalen-1-yloxy)methyl)phenyl)methyl)ethanamine], the inhibition at 5 µM was 42.5%.

On to `COc1ccccc1OCc1cccc(CNC(C)C)c1` [5e, N-(3-((2-methoxyphenoxy)methyl)benzyl)propan-2-amine], for which the inhibition at 5 µM is 14.7%.

Take `NCc1cccc(COc2cccc3ccccc23)c1` [5s, (3-((naphthalen-1-yloxy)methyl)phenyl)methanamine]: the inhibition at 5 µM came to 4%.
